Marks after values point to notes of the source that are not given here.
How the values were obtained:
[1] = system: patients with tardive dyskinesia on long-term neuroleptic treatment; assay: Randomized, double blind, crossover trial of melatonin on tardive dyskinesia severity, Abnormal Involuntary Movements Scale (AIMS); type: in vivo, human
Description: The effect of melatonin on tardive dyskinesis was determined on a trial population of 22 patients, of whom 6 were schizoaffective and 16 were paranoid schizophrenics. All patients, who had been receiving long-term neuroleptic treatment, were diagnosed according to DSM IV. They consisted of 11 men and 11 women, age 39±15 years, age range 17-61 years, of whom 19 completed the trial and are included in the results. In a randomized, double blind, crossover manner, subjects were given daily either 2×5 mg melatonin in a controlled-release formulation (Circadin™, Neurim Pharmaceuticals, Israel), two hours before bedtime, or a placebo of identical appearance, for a period of six weeks, with a four week placebo wash-out between two treatment periods. […] During the last week of each treatment period, TD severity was assessed using the Abnormal Involuntary Movements Scale (AIMS) and comparisons were made between placebo or melatonin treatments, and baseline.

[2] = system: pinealectomized rats treated with haloperidol; details: 4 mg, i.p., within one hour; cited from earlier work

In the case of `COc1ccc2[nH]cc(CCNC(C)=O)c2c1` [melatonin], the “T-test (t21), AIMS sub-scale 5” value ([1]; arms, hands, baseline/administration difference, placebo vs. melatonin) was −1.78, the “p of T-test, AIMS sub-scale 5” value ([1]; arms, hands, placebo vs. melatonin) was 0.09 and the “decrease, ie. improvement (AIMS), after administration” value ([1]; change from baseline after melatonin, placebo −1±1.3) was −3±2.1. For the same compound, the “T-test (t21), AIMS sub-scale 1” value ([1]; facial and oral movements, baseline/administration difference, placebo vs. melatonin) was −1, the “p of T-test, AIMS sub-scale 1” value ([1]; facial and oral movements, placebo vs. melatonin) was 0.33 and the “p (MANOVA) of decrease after melatonin compared with placebo” value ([1]; highly significant) was < 0.0001. For the same compound, the “T-test (t21), AIMS sub-scale 9” value ([1]; implication due to abnormal movements, baseline/administration difference, placebo vs. melatonin) was −1.14, the “p of T-test, AIMS sub-scale 9” value ([1]; implication due to abnormal movements, placebo vs. melatonin) was 0.27 and the “T-test (t21), AIMS sub-scale 3” value ([1]; jaw, baseline/administration difference, placebo vs. melatonin) was −1.14. For the same compound, the “p of T-test, AIMS sub-scale 3” value ([1]; jaw, placebo vs. melatonin) was 0.27, the “T-test (t21), AIMS sub-scale 6” value ([1]; legs, knees, baseline/administration difference, placebo vs. melatonin) was −2.81 and the “p of T-test, AIMS sub-scale 6” value ([1]; legs, knees, placebo vs. melatonin, significant outcome) was 0.01*. The “T-test (t21), AIMS sub-scale 2” value ([1]; lips and perioral area, baseline/administration difference, placebo vs. melatonin) was −3.92, the “p of T-test, AIMS sub-scale 2” value ([1]; lips and perioral area, placebo vs. melatonin, significant outcome) was <0.001* and the “T-test (t21), AIMS sub-scale 7” value ([1]; neck, shoulder, baseline/administration difference, placebo vs. melatonin) was −2.49. The “p of T-test, AIMS sub-scale 7” value ([1]; neck, shoulder, placebo vs. melatonin, significant outcome) was 0.02*, the “T-test (t21), AIMS sub-scale 10” value ([1]; patient's awareness, baseline/administration difference, placebo vs. melatonin) was “delta = 0” and the “T-test (t21), AIMS sub-scale 11” value ([1]; problem with teeth, baseline/administration difference, placebo vs. melatonin) was “delta = 0”. For the same compound, the “T-test (t21), AIMS sub-scale 8” value ([1]; severity of abnormal movements, baseline/administration difference, placebo vs. melatonin) was −1.82, the “p of T-test, AIMS sub-scale 8” value ([1]; severity of abnormal movements, placebo vs. melatonin) was 0.08 and the “T-test (t21), AIMS sub-scale 4” value ([1]; tongue, baseline/administration difference, placebo vs. melatonin) was −0.81. The “p of T-test, AIMS sub-scale 4” value ([1]; tongue, placebo vs. melatonin) was 0.43 and the “severity of movements after melatonin” value [2] was “non-significant reduction of the severity of movements”.
